# Reference: US9758485B2, “Compounds for controlling arthropods” (priority 2013, dated 2017)
# Assay: logP determination by HPLC on a reversed-phase column (C18), EEC Directive 79/831 Annex V.A8
# Type: physicochemical
# Details: HPLC on reversed-phase column (C18)
row,SMILES,log P
1,CCS(=O)(=O)c1cc(C(F)(F)F)cc(Cl)c1-n1cc(-c2ccc(Cl)c(C(=O)NC3(C#N)CC3)c2)cn1 [I-T3-183],3.1
2,O=C(NC1CC1)c1cc(-c2cnn(-c3c(F)cc(C(F)(F)F)cc3Cl)c2)ccc1Cl [I-T3-186],3.6
3,N#CC1(NC(=O)c2cc(-c3cnn(-c4c(F)cc(C(F)(F)F)cc4Cl)c3)ccc2Cl)CC1 [I-T3-187],3.3
4,N#CC1(NC(=O)c2cc(-c3cnn(-c4c(F)c(F)c(C(F)(F)F)c(F)c4F)c3)ccc2Cl)CC1 [I-T3-188],3.4
5,CCS(=O)(=O)c1cc(C(F)(F)F)cc(C#N)c1-n1cc(-c2ccc(Cl)c(C(=O)NC3(C#N)CC3)c2)cn1 [I-T3-190],2.9
6,CCSc1cc(C(F)(C(F)(F)F)C(F)(F)F)cc(SCC)c1-n1cc(-c2ccc(Cl)c(C(=O)NC3(C#N)CC3)c2)cn1 [I-T3-191],4.7
7,CCSc1cc(C(F)(C(F)(F)F)C(F)(F)F)cc(Cl)c1-n1cc(-c2ccc(Cl)c(C(=O)NC3(C#N)CC3)c2)cn1 [I-T3-192],4.5
8,O=C(NC1CC1)c1cc(-c2cnn(-c3c(Cl)cc(C(F)(C(F)(F)F)C(F)(F)F)cc3C(F)F)c2)ccc1Cl [I-T3-193],4.4
9,NC(=O)C1(NC(=O)c2cc(-c3cnn(-c4c(F)c(F)c(C(F)(F)F)c(F)c4F)c3)ccc2Cl)CC1 [I-T3-194],2.8
10,CC[S+]([O-])c1cc(C(F)(C(F)(F)F)C(F)(F)F)cc(Cl)c1-n1cc(-c2ccc(Cl)c(C(=O)NC3(C#N)CC3)c2)cn1 (stereo not drawn) [I-T3-195],3.8
11,Cc1cc(C(F)(C(F)(F)F)C(F)(F)F)cc(C(F)(F)F)c1-n1cc(-c2cnc(Cl)c(C(=O)NCC3(C#N)CC3)c2)cn1 [I-T3-197],4.0
12,CCS(=O)(=O)c1cc(C(F)(C(F)(F)F)C(F)(F)F)cc(S(=O)(=O)CC)c1-n1cc(-c2ccc(Cl)c(C(=O)NC3(C#N)CC3)c2)cn1 [I-T3-198],3.7

# Same assay, conditions: HPLC-MS method a), Table I-T3
row,SMILES,logP^a)
1,Cc1cc(C(F)(C(F)(F)F)C(F)(F)F)cc(C)c1-n1cc(-c2cc(C(=O)NC3CC3)c(Cl)cc2F)cn1 [I-T3-14],4.5
2,N#CC1(NC(=O)c2cccc(-c3cnn(-c4c(Cl)cc(C(F)(C(F)(F)F)C(F)(F)F)cc4Cl)c3)c2F)CC1 [I-T3-22],4.1

# Same assay, conditions: HPLC-MS, reversed-phase column (C18)
row,SMILES,log P
1,O=C(NC1CC1)c1cccc(-c2cnn(-c3ncc(C(F)(F)F)cc3Cl)c2)c1 [I-T3-122],3.0
2,CN(C(=O)c1cc(-c2cnn(-c3ccc(C(F)(C(F)(F)F)C(F)(F)F)cc3C(F)(F)F)c2)ccc1Cl)C1CC1 [I-T3-134],4.9
3,O=C(NC1CC1)c1cc(-c2cnn(-c3ncc(C(F)(C(F)(F)F)C(F)(F)F)cc3Cl)c2)ccc1Cl [I-T3-152],4.1
4,CC[S+]([O-])c1cc(C(F)(C(F)(F)F)C(F)(F)F)cnc1-n1cc(-c2ccc(Cl)c(C(=O)NC3(C#N)CC3)c2)cn1 (stereo not drawn) [I-T3-153],3.7
5,NC(=S)C1(NC(=O)c2cc(-c3cnn(-c4c(Cl)cc(C(F)(C(F)(F)F)C(F)(F)F)cc4C(F)(F)F)c3)cnc2Cl)CC1 [I-T3-159],3.8
6,CSc1cc(C(F)(C(F)(F)F)C(F)(F)F)cnc1-n1cc(-c2ccc(Cl)c(C(=O)NC3(C#N)CC3)c2)cn1 [I-T3-166],4.3
7,N#CC1(NC(=O)c2cc(-c3cnn(-c4c(Cl)cc(C(F)(F)F)cc4[N+](=O)[O-])c3)ccc2Cl)CC1 [I-T3-169],3.2
8,CCSc1cc(C(F)(F)F)cc(Cl)c1-n1cc(-c2ccc(Cl)c(C(=O)NC3(C#N)CC3)c2)cn1 [I-T3-170],3.7
9,N#CC1(NC(=O)c2cc(-c3cnn(-c4ncc(C(F)(C(F)(F)F)C(F)(F)F)cc4SCC(F)(F)F)c3)ccc2Cl)CC1 [I-T3-171],4.5
10,CCSc1cc(C(F)(F)F)cc(Cl)c1-n1cc(-c2ccc(Cl)c(C(=O)NC3CC3)c2)cn1 [I-T3-172],3.9
11,N#Cc1cc(C(F)(F)F)cc(Cl)c1-n1cc(-c2ccc(Cl)c(C(=O)NC3CC3)c2)cn1 [I-T3-174],3.1
12,CCSc1cc(C(F)(F)F)cc(C#N)c1-n1cc(-c2ccc(Cl)c(C(=O)NC3(C#N)CC3)c2)cn1 [I-T3-177],3.4
13,CCS(=O)(=O)c1cc(C(F)(F)F)cc(Cl)c1-n1cc(-c2ccc(Cl)c(C(=O)NC3CC3)c2)cn1 [I-T3-178],3.2
14,CC[S+]([O-])c1cc(C(F)(F)F)cc(Cl)c1-n1cc(-c2ccc(Cl)c(C(=O)NC3CC3)c2)cn1 (stereo not drawn) [I-T3-179],3.0
15,CCS(=O)(=O)c1cc(C(F)(F)F)cc(C#N)c1-n1cc(-c2ccc(Cl)c(C(=O)NC3CC3)c2)cn1 [I-T3-180],2.8
16,CC[S+]([O-])c1cc(C(F)(F)F)cc(C#N)c1-n1cc(-c2ccc(Cl)c(C(=O)NC3CC3)c2)cn1 (stereo not drawn) [I-T3-181],2.7

# Same assay, conditions: reversed-phase HPLC column (C18), HPLC, reversed-phase C18, acetonitrile/water with formic acid, 55° C.; read-out: logP
row,SMILES,chromatographic logP
1,"NNc1c(Cl)cc(C(O)(C(F)(F)F)C(F)(F)F)cc1Cl [2-(3,5-dichloro-4-hydrazinophenyl)-1,1,1,3,3,3-hexafluoropropan-2-ol]",1.92
2,"FC(F)(F)C(F)(c1cnc(-n2cc(Br)cn2)c(Cl)c1)C(F)(F)F [2-(4-bromo-1H-pyrazol-1-yl)-3-chloro-5-(1,1,1,2,3,3,3-heptafluoropropan-2-yl)pyridine]",4.74
3,Cc1cc(C(F)(C(F)(F)F)C(F)(F)F)cc(Br)c1N [2-bromo-6-methyl-4-heptafluoroisopropylaniline],4.38
4,"O=C(NC1CC1)c1cc(-c2cnn(-c3ncc(C(F)(C(F)(F)F)C(F)(F)F)cc3Cl)c2)ccc1Cl [2-chloro-5-{1-[3-chloro-5-(1,1,1,2,3,3,3-heptafluoropropan-2-yl)pyridin-2-yl]-1H-pyrazol-4-yl}-N-cyclopropylbenzamide]",4.08
5,CCc1cc(C(F)(C(F)(F)F)C(F)(F)F)cc(Cl)c1N [2-chloro-6-ethyl-4-heptafluoroisopropylaniline],4.67
6,Cc1cc(C(F)(C(F)(F)F)C(F)(F)F)cc(C(F)(F)F)c1N [4-heptafluoroisopropyl-2-methyl-6-trifluoromethylaniline],4.67
7,"CCSc1cc(C(F)(C(F)(F)F)C(F)(F)F)cnc1-n1cc(-c2ccc(Cl)c(C(=O)NC3CC3)c2)cn1 [I-T3-156, 2-Chloro-N-cyclopropyl-5-{1-[3-(ethylsulphanyl)-5-(1,1,1,2,3,3,3-heptafluoropropan-2-yl)pyridin-2-yl]-1H-pyrazol-4-yl}benzamide]",4.69
8,"CC[S+]([O-])c1cc(C(F)(C(F)(F)F)C(F)(F)F)cnc1-n1cc(-c2ccc(Cl)c(C(=O)NC3CC3)c2)cn1 (stereo not drawn) [I-T3-157, 2-Chloro-N-cyclopropyl-5-{1-[3-(ethylsulphinyl)-5-(1,1,1,2,3,3,3-heptafluoropropan-2-yl)pyridin-2-yl]-1H-pyrazol-4-yl}benzamide]",3.79

# Same assay, conditions: reversed-phase HPLC column (C18), HPLC-MS method a), reversed-phase column (C18); read-out: logP^a)
row,SMILES,chromatographic logP
1,"CCSc1cc(C(F)(C(F)(F)F)C(F)(F)F)cnc1-n1cc(-c2ccc(Cl)c(C(=O)NC3CC3)c2)cn1 [I-T3-156, 2-Chloro-N-cyclopropyl-5-{1-[3-(ethylsulphanyl)-5-(1,1,1,2,3,3,3-heptafluoropropan-2-yl)pyridin-2-yl]-1H-pyrazol-4-yl}benzamide]",4.7
2,"CC[S+]([O-])c1cc(C(F)(C(F)(F)F)C(F)(F)F)cnc1-n1cc(-c2ccc(Cl)c(C(=O)NC3CC3)c2)cn1 (stereo not drawn) [I-T3-157, 2-Chloro-N-cyclopropyl-5-{1-[3-(ethylsulphinyl)-5-(1,1,1,2,3,3,3-heptafluoropropan-2-yl)pyridin-2-yl]-1H-pyrazol-4-yl}benzamide]",3.8

# Same assay, conditions: reversed-phase HPLC column (C18), HPLC-MS, reversed-phase column (C18); read-out: log P
row,SMILES,chromatographic logP
1,"CCSc1cc(C(F)(C(F)(F)F)C(F)(F)F)cnc1-n1cc(-c2ccc(Cl)c(C(=O)NC3CC3)c2)cn1 [I-T3-156, 2-Chloro-N-cyclopropyl-5-{1-[3-(ethylsulphanyl)-5-(1,1,1,2,3,3,3-heptafluoropropan-2-yl)pyridin-2-yl]-1H-pyrazol-4-yl}benzamide]",4.7
2,"CC[S+]([O-])c1cc(C(F)(C(F)(F)F)C(F)(F)F)cnc1-n1cc(-c2ccc(Cl)c(C(=O)NC3CC3)c2)cn1 (stereo not drawn) [I-T3-157, 2-Chloro-N-cyclopropyl-5-{1-[3-(ethylsulphinyl)-5-(1,1,1,2,3,3,3-heptafluoropropan-2-yl)pyridin-2-yl]-1H-pyrazol-4-yl}benzamide]",3.8
